Columns and labels:
Type in all cases: in vivo
Conditions in all cases: ITE 100-200 mg/kg i.p. once daily
[1] = test system: M14 (human skin cancer) xenografts; assay: M14 xenograft growth inhibition
Description: (§1) All the procedures related to animal handling, care, and the treatment in the study were performed following guidelines of KeyGen Biotechn Co., Ltd. (Nanjing, China), a contract research organization we hired, based on the guidance of the Association for Assessment and Accreditation of Laboratory Animal Care (AAALAC). Animals were checked for any effects of tumor growth and drug treatment on normal behavior such as mobility, food and water consumption, body weight gain/loss (bodyweights were measured every two days), eye/hair matting, and any other abnormal effect. Death and observed clinical signs were recorded. Individual animals with a tumor volume exceeding 3,000 mm^3 or animals of a group with a mean tumor volume exceeding 2,000 mm^3 were euthanized. In addition, animals showing signs of severe distress and/or pain or losing the capability of accessing adequate food or water were humanely sacrificed.
(§2) Cell lines HCT116, Siha, MFC were cultured in DMEM medium (high glucose) supplemented with 10% fetal bovine serum (FBS), SW116 and T24 in RPMI-1640 medium with 10% FBS, M14 and A375 in DMEM medium (high glucose) with 10% calf serum (CS), SGC7901 and Ketr-3 in RPMI-1640 medium with 10% CS, and CFPAC-1 in IMDM medium with 10% FBS. All of the cells were cultured, in the presence of 100 U/ml penicillin and 100 μg/ml streptomycin, at 37° C. in an atmosphere of 5% CO2 in air. […] The cells growing in an exponential phase were harvested and counted for tumor inoculation. Cell lines 5180 and U14 were maintained in ascites (peritoneal cavity fluid) of mice and were harvested and counted for tumor inoculation. […]
(§3) Tumor volume was measured every two days in two dimensions using a caliper and the volume was calculated with a formula of: V=0.5 a×b^2, where a and b are the long and short diameter (in mm) of a tumor, respectively. […] The TGD was calculated as: TGD=T−C, where T was the time (in days) required for tumors in a drug treated group to reach a predetermined mean tumor volume and C the time (in days) in the control group to reach the same volume. […]

[2] = test system: CFPAC-1 (human pancreatic cancer) xenografts; assay: CFPAC-1 xenograft growth inhibition
Description: as §1, §2, §3

[3] = test system: HCT116 (human colon cancer) xenografts; assay: HCT116 xenograft growth inhibition
Description: as §1, §2, §3

[4] = TGI at day 26, TGI=(1−ΔT/ΔC)×100%
[5] = end of therapy relative to beginning

SMILES: COC(=O)c1csc(C(=O)c2c[nH]c3ccccc23)n1 [ITE, 2-(1′H-indole-3′-carbonyl)-thiazole-4-carboxylic acid methyl ester]
- TGD ([1]; TGD at Vol. 1,000): 5 days
- TGI (%) [1, 4]: 48%
- Weight Loss [1, 5]: 15%
- TGD ([2]; TGD at Vol. 1,000): 8 days
- TGI (%) [2, 4]: 58%
- Weight Loss [2, 5]: 14%
- TGD ([3]; TGD at Vol. 1,000): 3 days
- TGI (%) ([3]; TGI at day 18, TGI=(1−ΔT/ΔC)×100%): 41%
- Weight Loss [3, 5]: 9%
